Source: patent publication US9486405B2, “Methods for the treatment of pediatric otic disorders” (Otonomy, Inc., priority 2013, dated 2016)

Tests used:
[1] = Middle ear histology, one-month acute ototoxicity study; format: in vivo, guinea pig; settings: at termination; Composition A 2% and 6% single IT-ANT; drops twice daily for 7 days; gentamicin single IT-ANT
Method: (§1) At termination, functional and anatomic assessments of the middle and inner ear compartments were conducted.
Histological analysis of middle ear paraffin sections was conducted at termination.
Middle ear histology—Guinea pigs received vascular perfusion through the heart with an isotonic saline solution followed by fixative containing 4% paraformaldehyde (PFA) in phosphate buffer. Left and right temporal bones were removed and trimmed. Left ear cochleae were designated for inner ear assessment and the right ear cochleae for middle ear histology. Cochleae of the left ear were fixed by intrascalar perfusion of 4% PFA. The temporal bones were then placed in 4% PFA for approximately 1 hour and transferred to a vial containing 0.5% PFA in phosphate buffer. The right temporal bones were trimmed, and then each was placed in a cassette containing 5% EDTA in phosphate buffer. The cassettes were placed into a PELCO 3451 Microwave System, running constantly for 3-5 days. Ears were then dehydrated in EtOH and processed in JB-4 Glycol Methacrylate resin, placed into molds containing the resin and polymerized at ˜4° C. for ˜12 h. Blocks containing temporal bones were trimmed and 5 μm sections were cut with a Leica RM2165 Microtome and stained with Paragon stain. Sections were examined under bright field optics. Middle ear sections were assessed for tissue reaction and inflammatory response. […]

[2] = tested on: inner and outer hair cells; experiment: Inner ear cytocochleogram, one-month acute ototoxicity study; format: in vivo, guinea pig; settings: at termination; 2% and 6% single IT-ANT; drops twice daily for 7 days; gentamicin single IT-ANT
Method: as §1
Inner ear cytocochleogram—The left ear cochleae were carefully removed from the temporal bones and then further dissected, first removing the bony otic capsule, followed by removal of lateral wall tissues, including spiral ligament and stria vascularis. The tectorial membrane was then removed and the cochleae placed in a solution of rhodamine labeled phalloidin, diluted 1:100 in phosphate buffered saline (PBS), for 30-120 min, in the dark, followed by two washes in PBS. The cochlear sensory neural epithelium was then dissected away from the modiolus, starting at the apex, to produce surface preparations of the cochlear spiral. Each segment was mapped for location and placed on a slide. A quantitative assessment of presence or absence of hair cells was then carried out, beginning at apex and proceeding to the base, to produce a cytocochleogram, with presence or absence or hair cells mapped by position along the cochlear spiral.

Q: What does the source list for gentamicin?
A: middle ear histology finding [1]: moderate chronic inflammation; hair cell loss (cytocochleogram) [2]: profound to complete hair cell loss
